The values that follow come from patent US6362220B1, “Anticonvulsant derivatives useful in reducing blood glucose levels” (Ortho-McNeil Pharmaceutical, Inc., priority 1999, dated 2002).

For test [1] the following is noted: animal model of kindled epilepsy; cited from earlier work.
Test [2] in a line: retrospective analysis of long term open-label studies in epilepsy: blood glucose. Type of test: in vivo, human. The conditions noted are these: 14 epilepsy patients, overweight (>100 kg) with high blood glucose (>115 mg/dl); study mean daily dosage 622 mg/day, mean duration 689 days.
For test [3] the following is noted: human epilepsy; adjunctive therapy or monotherapy; cited from earlier work.
The conditions of test [4]: several rodent models; cited from earlier work.

As for `CC1(C)O[C@@H]2[C@@H](CO[C@@]3(COS(N)(=O)=O)OC(C)(C)O[C@@H]23)O1` [topiramate, 2,3:4,5-bis-O-(1-methylethylidene)-β-D-fructopyranose sulfamate], the “seizure block in kindled epilepsy model” value in test [1] is “effectively block seizures”. Moreover, the “reduction in blood glucose” value in test [2] turned out to be 5.8%. For the same molecule, the “efficacy in treating seizures in clinical trials” value in test [3] is recorded as “effective as adjunctive therapy or as monotherapy”. The “seizure block in rodent models of epilepsy” value in test [4] is recorded as “effectively block seizures”.
